# Results: patent publication US20230000808A1, “COMPOSITIONS AND METHODS EXCLUDING OR WITH REDUCED GLUTAMINE FOR THE TREATMENT OF HEMOGLOBINOPATHIES AND THALASSEMIAS” (AXCELLA HEALTH INC., priority 2019, published 2023)
# Columns and labels:
# HLMVEC = test: META-rank score, composite of VCAM1, ICAM1 and IL6 in the HLMVEC model; type: cell-based, human; settings: HLMVEC + TNF-α; lower score = more optimal; 20x HMDB / 5 mM
# Procedure: The ability of single amino acids and combinations to simultaneously impact these phenotypes was measured by a META-rank score (Tables 17 and 18). META-rank score is a composite measure that considers the optimal impact on all 3 phenotypes (e.g. decrease VCAM1, ICAM1, and IL6) in the HLMVEC model.
# ICAM-1 = ICAM-1 cell integrated intensity in HLMVEC treated with TNF-α (immunofluorescence); type: cell-based, human; settings: HLMVEC + 0.5 ng/mL TNF-α, 24 h; amino acids 20x HMDB, Nac/Cit/Car 5 mM as bracketed
# Procedure: (§1) Primary Human Lung Microvascular Endothelial Cells (HLMVEC; Lonza) were seeded at 6,000 cells per well in Endothelial Cell Growth Basal Medium-2 (Lonza) supplemented with Fetal Bovine Serum (FBS; Lonza), human EGF (Lonza), human VEGF (Lonza), R3-Insulin-like Growth Factor-1 (Lonza), ascorbic acid (Lonza), hydrocortisone (Lonza), human FGF-beta (Lonza), and gentamicin/amphotericin-b (Lonza) in a 96-well plate (Thermo Fisher). The cells were incubated for 45 minutes at room temperature, then incubated overnight at 37° C./5% CO2.
# (§2) Following overnight incubation, cell were washed once with 150 μL of Dulbecco's phosphate buffered saline (DPBS; Gibco), and then treated with Endothelial Basal Medium MCB-131 (amino acid, glucose, sodium pyruvate, and phenol red free; US Biologicals) containing a defined custom amino acid concentration based on physiological concentrations in blood of patients with SCD (thus recapitulating observed metabolic imbalances such as the depletion of certain essential amino acids including arginine and aspartate and enrichment of certain non-essential amino acids including glutamate and asparagine), dialyzed FBS (Hyclone), human EGF (Lonza), human VEGF (Lonza), R3-Insulin-like Growth Factor-1 (Lonza), ascorbic acid (Lonza), hydrocortisone (Lonza), human FGF-beta (Lonza), and gentamicin/amphotericin-b (Lonza), glucose, 10 mM HEPES, sodium pyruvate, and sodium bicarbonate supplemented with one of the following: • a. PBS (vehicle control), • b. 0.5 ng/mL Tumor Necrosis Factor alpha (TNFα) and PBS, or; • c. 0.5 ng/mL TNF-α and amino acid treatments at 20× mean physiological concentrations in plasma based on values published in the Human Metabolome Database (HMDB) in PBS.
# (§3) After 24 hours of treatment, cells were washed once with 150 μL of DPBS (Gibco), then fixed with 4% paraformaldehyde. Following fixation, cells were stained with anti-ICAM-1 [MEM-111] (mouse IgG2a anti-human; abcam) and anti-VCAM1 [1.4C3] (mouse IgG1, K anti-human; abcam) primary antibodies at 1000×, and 100× dilutions respectively. Cells were then stained with Goat anti-Mouse IgG2a Cross-Adsorbed Secondary Antibody, Alexa Fluor 594 (Invitrogen) and Goat anti-Mouse IgG1 Cross-Adsorbed Secondary Antibody, Alexa Fluor 647 (Invitrogen) secondary antibodies. Nuclei were stained with Hoechst 3342 (Life Technologies).
# (§4) Antibody binding was detected by fluorescence microscopy using a high content imager (Molecular Devices). Images were analyzed using MetaXpress 6 software to determine the integrated intensity per cell for each wavelength corresponding to ICAM-1 or VCAM-1.
# [1] = test system: RBCs of healthy whole blood; test: RBC deformability (Elongation Index, LORRCA ektacytometry), ex vivo TBHP oxidation of healthy whole blood; type: cell-based, human; settings: healthy donor 2, single amino acid treatments
# Excerpt: Whole blood from healthy African American and/or Hispanic donors was obtained from Research Blood Components, LLC based on the following donor selection criteria: Adult age (between 18 and 50 years), normal BMI (<30), and absence of other confounding clinical conditions. Whole blood from SCD donors were obtained from BioIVT based on the following donor selection criteria: Patients with genotypes HbSS, HbSC, HbS/β^0 and at least 1-2 months gap since last blood transfusion. Whole blood was shipped on ice on the same day as blood draw. Upon receipt, the blood sample was aliquoted and stored in the refrigerator until used for studies.
# RBC deformability measurements were conducted with the Laser Optical Rotational Red Cell Analyzer (LORRCA) from RR Mechatronics in a temperature-controlled environment (37° C.). Briefly, an even layer of RBCs suspended in polyvinylpyrrolidone (PVP) is subjected to shear stress gradient (0.3 to 30 Pa) through two concentric cylinders and the resulting changes in RBC shape or deformability are measured by a laser beam diffraction pattern. The captured images of RBC shape in response to increasing shear stress are then analyzed by the LORRCA program to calculate Elongation Index (EI).
# Healthy RBCs have higher deformability ≥0.5 EI and SCD RBCs have lower deformability or EI values as studied by LORRCA ektacytometry in the field. […] The induced hemolysis model in this disclosure involves use of tert-butyl hydroperoxide (TBHP) to lower EI of RBCs.
# The ex vivo hemolysis study disclosed here involves overnight treatment of whole blood with vehicle as a control and specific amino acids followed by rapid oxidation (5 min) with TBHP. Method for oxidation of whole blood with tert-butyl hydroperoxide has been used in prior literature (Diederich L, et al, Front Physiol. 2018 May 11; 9:332). RBC deformability or shape changes are then measured with LORRCA ektacytometry.
# Whole blood aliquots stored in the fridge were brought up to room temperature while gently shaking on a rocker at low speed for an hour to ensure gradual and uniform suspension of red blood cells prior to deformability measurements. Vehicle control used in the study was 1× Dulbecco's […]) and amino acids disclosed herein were added (at either final 10× or 2.5 mM concentration as indicated) to corresponding vehicle and amino acid treatment conditions. The samples were then incubated overnight at 37° C. The next day, 25 μl of whole blood was taken from each treatment condition and added to 5 mL Elon ISO viscous solution from RR Mechatronics. The sample was inverted 15-20 times to ensure proper mixing of the treated RBCs with the Elon ISO solution followed by loading the sample on LORRCA and capturing RBC deformability or shape measurements over the applied shear gradient. The remaining whole blood treatments were returned to incubator (37° C.) until deformability measurements were completed for all treatments. To the remaining whole blood treatment samples, TBHP solution (5.0-6.0 M in Decane, Sigma) was added at 2.5 mM final concentration from a 100 mM freshly prepared stock and incubated for further 5 min at 37° C. 25 μl of this TBHP-treated sample was immediately removed at the end of the 5 min incubation and added to the Elon ISO solution for RBC deformability measurement after oxidation. Included in the Tables 13-15 are EI measurements at ½ EImax shear stress 1.69 Pa and EImax shear stress 30 Pa from these studies and FIG. 1 captures EI measurements for all shear stress points for the indicated treatment conditions.
# VCAM-1 = VCAM-1 cell integrated intensity in HLMVEC treated with TNF-α (immunofluorescence); type: cell-based, human
# Procedure: as §1, §2, §3, §4
# IL-6 = test: Secreted IL-6 in HLMVEC treated with TNF-α (FirePlex); type: cell-based, human; settings: HLMVEC + 0.5 ng/mL TNF-α, 24 h; amino acids 20x HMDB, Nac/Cit/Car 5 mM as bracketed
# Procedure: as §1, §2
# Supernatants were analyzed for IL-6 concentrations using a Human Cytokines FirePlex-HT Panel 1 kit (abcam) according to the manufacturer-supplied instructions. Particles were imaged on a high content imager (Molecular Devices), and results were interpolated from a standard curve with FirePlex Analysis Workbench Software (abcam) according manufacturer's recommendations.
# [2] = Pharmacokinetics following oral dose administration to male Sprague-Dawley rats (plasma amino acids, LC-MS); settings: analyte after oral gavage of RCitNacQCarLHKVS
# Procedure: A pharmacokinetic (PK) analysis was performed on plasma concentrations of various combinations of amino acid compounds administered by oral gavage to male Sprague-Dawley rats. Four animals were dosed with RCitNacQCarLHKVS, a test article comprising ten amino acid components: arginine, citrulline, N-acetylcysteine (Nac), glutamine, carnitine, leucine, histidine, lysine, valine, and serine (Table 19). Animals were fasted for 2 hours prior to dose administration. Plasma samples were taken immediately pre-dose and 0.5, 1, 2, 3, 4, and 5 hours post-dose.
# Bioanalysis of collected plasma samples for amino acid content was performed at Axcella Health using an LC-MS method (Section 2.1). Bioanalytical data were analyzed using noncompartmental analysis with PHOENIX® WINNONLIN® (v8.1).
# An LC/MS method utilizing HILIC chromatography and high-resolution mass spectrometry was used to quantify amino acids in rat plasma. […]
# PK parameters of test article components were determined from individual rat plasma concentration-time data by employing a noncompartmental approach using Phoenix WINNONLIN® (Version 8.1) software. […] This program analyzed data using the standard methods described by Gibaldi and Perrier (see M. Gibaldi and D. Perrier, Pharmacokinetics, 2nd edition, New York: Marcel-Dekker, Inc.; 1982.).
compound,measurement,setting,value
"C[N+](C)(C)CC(O)CC(=O)[O-] (centres unmarked) [Car, carnitine]",Meta-Rank (Table 18),HLMVEC,12.5
same,Metarank (Table 17),HLMVEC,24
same,ICAM-1 Cell Integrated Intensity Median,ICAM-1,−0.013
same,"EI over vehicle control, both ½ EImax and EImax",[1],higher than the vehicle
same,VCAM-1 expression in HLMVEC,"VCAM-1; 0.5 ng/mL TNF-α, amino acids at 20× HMDB, 24 hours",moderate effect
same,VCAM-1 Cell Integrated Intensity Median,"VCAM-1; HLMVEC + 0.5 ng/mL TNF-α, 24 h, amino acids 20x HMDB, Nac/Cit/Car 5 mM as bracketed",−0.017
same,Secreted IL6 Median,IL-6,−0.022
same,plasma concentration over the five-hour time course,[2],continuously increased
